Experimental data reported in ChEMBL document CHEMBL1159316, “Bioactive saponins from Acacia tenuifolia from the suriname rainforest” (J Nat Prod, 2002).
Converted amounts (≈) assume the structure as drawn.

Assays:
[1] = tested on: Saccharomyces cerevisiae; experiment: Antifungal activity against Saccharomyces cerevisiae 1138; assay type: functional
[2] = tested on: Saccharomyces cerevisiae; experiment: Antifungal activity against Saccharomyces cerevisiae 1140; assay type: functional
[3] = tested on: Saccharomyces cerevisiae; experiment: Antifungal activity against Saccharomyces cerevisiae Sc7; assay type: functional
[4] = tested on: Saccharomyces cerevisiae; experiment: Antifungal activity against Saccharomyces cerevisiae 1353; assay type: functional
[5] = tested on: A2780; experiment: Cytotoxicity against human A2780 cells; assay type: functional, cell-based
[6] = tested on: M109; experiment: Cytotoxicity against mouse M109 cells; assay type: functional, cell-based

## CC(=O)N[C@H]1[C@H](O[C@H]2CC[C@]3(C)[C@H]4CC=C5[C@@H]6CC(C)(C)[C@@H](OC(=O)/C=C/c7ccccc7)C[C@]6(C(=O)O)[C@H](O)C[C@@]5(C)[C@]4(C)CC[C@H]3C2(C)C)O[C@H](CO[C@@H]2OC[C@H](O)[C@H](O)[C@H]2O[C@@H]2OC[C@H](O)[C@H](O)[C@H]2O)[C@@H](O)[C@@H]1O [ACACIOSIDE C]
[1]
  IC12: 160 µg/mL
[2]
  IC12: 215 µg/mL
[3]
  IC12: 275 µg/mL
[4]
  IC12: 220 µg/mL
[5]
  IC50: 13 mg/L (≈ 12 µM)

## CC(=O)N[C@H]1[C@H](O[C@H]2CC[C@]3(C)[C@H]4CC=C5[C@@H]6CC(C)(C)[C@@H](OC(=O)/C=C/c7ccccc7)C[C@]6(C(=O)O)[C@H](O)C[C@@]5(C)[C@]4(C)CC[C@H]3C2(C)C)O[C@H](CO[C@@H]2OC[C@H](O)[C@H](O)[C@H]2O[C@@H]2OC[C@@H](O)[C@H](O)[C@H]2O)[C@@H](O)[C@@H]1O [ACACIOSIDE B]
[1]
  IC12: 150 µg/mL
[2]
  IC12: 220 µg/mL
[3]
  IC12: 280 µg/mL
[4]
  IC12: 220 µg/mL
[5]
  IC50: 13.5 mg/L (≈ 12.4 µM)

## CC(=O)N[C@H]1[C@H](O[C@H]2CC[C@]3(C)[C@H]4CC=C5[C@@H]6CC(C)(C)CC[C@]6(C(=O)O)CC[C@@]5(C)[C@]4(C)CC[C@H]3C2(C)C)O[C@H](CO[C@@H]2OC[C@H](O)[C@H](O)[C@H]2O[C@@H]2OC[C@@H](O)[C@H](O)[C@H]2O)[C@@H](O)[C@@H]1O [ALBIZIATRIOSIDE A]
[6]
  IC50: 1 mg/L (≈ 1.08 µM)
[1]
  IC12: 30 µg/mL
[2]
  IC12: 35 µg/mL
[3]
  IC12: 30 µg/mL
[4]
  IC12: 35 µg/mL

## CC(=O)N[C@H]1[C@H](O[C@H]2CC[C@]3(C)[C@H]4CC=C5[C@@H]6CC(C)(C)CC[C@]6(C(=O)O)CC[C@@]5(C)[C@]4(C)CC[C@H]3C2(C)C)O[C@H](CO[C@@H]2OC[C@H](O)[C@H](O)[C@H]2O[C@@H]2OC[C@H](O)[C@H](O)[C@H]2O)[C@@H](O)[C@@H]1O
[6]
  IC50: 1 mg/L (≈ 1.08 µM)
[1]
  IC12: 25 µg/mL
[2]
  IC12: 40 µg/mL
[3]
  IC12: 45 µg/mL
[4]
  IC12: 30 µg/mL
